Experimental data taken from patent US12037324B2, “Biarylmethyl heterocycles” (Université de Montréal, priority 2016, dated 2024).

Key:
Assay type in all cases: cell-based
[1] = target: T1, hAT1R (Homo sapiens, UniProt P30556); experiment: BRET β-arrestin2 biosensor assay, higher receptor expression (hAT1R 5 ng/well), HEK293 cells; conditions: for EC50: High AT1R Expression
T1 sequence (P30556 1-359): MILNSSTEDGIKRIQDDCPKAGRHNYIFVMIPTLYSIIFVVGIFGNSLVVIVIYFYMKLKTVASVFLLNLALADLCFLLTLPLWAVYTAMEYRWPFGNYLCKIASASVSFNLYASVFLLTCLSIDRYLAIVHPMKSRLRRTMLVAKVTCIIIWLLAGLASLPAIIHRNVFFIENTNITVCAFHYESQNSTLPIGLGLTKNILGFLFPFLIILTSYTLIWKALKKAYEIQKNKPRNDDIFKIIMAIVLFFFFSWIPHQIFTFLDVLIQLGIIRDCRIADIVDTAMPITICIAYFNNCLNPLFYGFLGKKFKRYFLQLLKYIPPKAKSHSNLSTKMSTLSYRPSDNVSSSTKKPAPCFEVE

[2] = target: T2, AGTR1 (Homo sapiens, UniProt P30556); experiment: DiscoveRx IP1 accumulation assay (HTRF), agonist mode, Pathunter CHO-K1 AGTR1 β-arrestin cell line; conditions: for EC50: read-out: IP-1 EC50
T2 construct: host or cells: Pathunter CHO-K1 AGTR1 β-arrestin cell line (CHO-K1)
T2 sequence (P30556 1-359): T1 sequence (P30556 1-359)
Method: In one aspect of the invention, signaling bias of compounds was assessed by comparing the relative activity of compounds to activate both the β-arrestin and Gq signaling pathways. In order to confirm signaling bias, compounds were studied in two different assay formats.
DiscoveRx β-arrestin2 Recruitment and IP1 Assays
Gq activation can be assessed by measuring the accumulation of inositol phosphates (e.g. IP3, IP1) that are liberated following activation of phospholipase C by Gq (Thomsen, Frazer et al. 2005). In the current invention we have utilized the DiscoveRx Pathunter CHO-K1 AGTR1 β-arrestin cell line to also measure IP1 accumulation in response to compounds. IP1 accumulation was measured in both agonist and antagonist modes. In agonist mode, cells are plated as above 14-16 hours before the experiment. The medium is then removed and compounds at varying concentrations added in a final volume of 20 μl. The cells are incubated at 37° C. for 90 min. IP1 accumulation detected using a commercial HTRF assay according to manufacturer's instructions (Cisbio, Bedford, MA). Specifically, 4 μl of D2-conjugate solution (diluted 1:20 in Cisbio HTRF assay buffer) is added to each well, followed by the addition of 4 μl of anti-IP1 cryptate diluted 1:20 in HTRF assay buffer and the plates incubated for 20 min at room temperature. 14 μl from each well is measured using an Envision multi-label reader and data processed using Toolset for Runmaster QCMulti. Concentration-response curves are fitted and EC50s (agonist mode) and IC50s (antagonist mode) estimated using a 4-parameter logistic equation. Compound activities are reported as a relative percentage to the maximal effect of All in the assays.

[3] = target: T2, AGTR1; experiment: DiscoveRx β-arrestin2 recruitment assay (enzyme complementation, Pathunter CHO-K1 AGTR1 β-arrestin cell line); conditions: DiscoveRx β-arrestin2 recruitment; for DiscoveRx β-arrestin2 Ymax (%): maximal response
Method: In one aspect of the invention, signaling bias of compounds was assessed by comparing the relative activity of compounds to activate both the β-arrestin and Gq signaling pathways. In order to confirm signaling bias, compounds were studied in two different assay formats. DiscoveRx β-arrestin2 Recruitment and IP1 Assays β-arrestin2 recruitment to activated receptors can be assessed using an enzyme complementation method (Zhao, Jones et al. 2008). […] Cells (5000/well) were plated into 1536 well plates (Cellocoat plates, Greiner Bio One, Monroe, NC) 14-16 hours before each experiment in 20 μl DMEM/F12 medium (Thermo-Fisher Scientific, Carlsbad, CA) containing heat-inactivated 1% fetal bovine serum. Subsequently, the compounds of interest were added at varying concentrations to the wells in a volume of 200 nl and the cells incubated for 90 min at 37° C. The detection reagent (10 μl) was added to each well and the plates incubated at room temperature for 1 hour before measurement of chemiluminescence using an EnVision Multilabel Reader (Perkin-Elmer, Waltham, MA). The data are processed using Toolset for Runmaster QCMulti. Concentration-response curves are fitted and EC50s (agonist mode) and IC50s (antagonist mode) estimated using a 4-parameter logistic equation. Compound activities are reported as a relative percentage to the maximal effect of All in the assays.

Row | Structure (SMILES) | BRET β-Arrestin2 High AT1R Expression Ymax (%) [1] | EC50 [1] | IP-1 Ymax (%) [2] | EC50 [2] | EC50 [3] | DiscoveRx β-arrestin2 Ymax (%) [3]
1 | CCc1nc2c(C)cc(C)nc2n1Cc1ccc(-c2cc(-c3ccc(OC(F)(F)F)cc3)ccc2-c2nn[nH]n2)cc1 [Example 6] | 73.5% | 51 nM | 4.9% | 14.6 nM | 14.1 nM | 27.0%
2 | CCc1nc2c(C)cc(C)nc2n1Cc1ccc(-c2cc(-c3ccc(C(F)(F)F)cc3)ccc2-c2nn[nH]n2)cc1 [Example 7] | 60.0% | 37.4 nM | 9.2% | 83.9 nM | 14.4 nM | 21.6%
3 | CCc1nc2c(C)cc(C)nc2n1Cc1ccc(-c2cc(-c3cccs3)ccc2-c2nn[nH]n2)cc1 [Example 12] | 83.6% | 9 nM |  | > 1000 nM | 6.3 nM | 21.4%
4 | CCc1nc2c(C)cc(C)nc2n1Cc1ccc(-c2cc(-c3ccc4ncccc4c3)ccc2-c2nn[nH]n2)cc1 [Example 13] | 53.8% | 11.5 nM |  | > 1000 nM | 12.9 nM | 24.8%
5 | CCc1nc2c(C)cc(C)nc2n1Cc1ccc(-c2cc(-c3cccc4cnccc34)ccc2-c2nn[nH]n2)cc1 [Example 16] | 69.9% | 24.7 nM | 3.6% | 55.3 nM | 59.8 nM | 17.1%
6 | CCc1nc2c(C)cc(C)nc2n1Cc1ccc(-c2cc(-c3cnn(C)c3)ccc2-c2nn[nH]n2)cc1 [Example 21] | 64.0% | 51.4 nM | 6.9% | 77.3 nM | 22.1 nM | 21.1%
7 | CCc1nc2c(C)cc(C)nc2n1Cc1ccc(-c2cc(-c3cccn3C)ccc2-c2nn[nH]n2)cc1 [Example 22] | 57.1% | 33.7 nM | 2.4% | 34.4 nM | 10.3 nM | 14.8%
8 | CCc1nc2c(C)cc(C)nc2n1Cc1ccc(-c2cc(-c3cccc(C(=O)N(C)C)c3)ccc2-c2nn[nH]n2)cc1 [Example 23] | 66.3% | 170 nM | 7.3% | 211 nM | 54.1 nM | 26.8%
9 | CCc1nc2c(C)cc(C)nc2n1Cc1ccc(-c2cc(N3C(=O)c4ccccc4C3=O)ccc2-c2nn[nH]n2)cc1 [Example 27, 2-(4′-((2-ethyl-5,7-dimethyl-3H-imidazo[4,5-b]pyridin-3-yl)methyl)-6-(2H-tetrazol-5-yl)-[1,1′-biphenyl]-3-yl)isoindoline-1,3-dione] | 20.1% | 89.5 nM |  | > 100000 nM | 206 nM | 10.6%
10 | CCCCC(=O)N(Cc1ccc(-c2cc(-c3ccccc3)ccc2-c2nn[nH]n2)cc1)[C@H](C(=O)O)C(C)C [Example 34, (S)-2-(N-((6′-(2H-Tetrazol-5-yl)-[1,1′:3′,1″-terphenyl]-4-yl)methyl)pentanamido)-3-methylbutanoic acid] | 68.4% | 50.6 nM | 3.8% | 178 nM | 40.3 nM | 35.6%
11 | CCCCc1nc(Cl)c(CO)n1Cc1ccc(-c2cc(-c3ccccc3)ccc2-c2nnn[nH]2)cc1 [Example 35, (1-((6′-(1H-Tetrazol-5-yl)-[1,1′:3′,1″-terphenyl]-4-yl)methyl)-2-butyl-4-chloro-1H-imidazol-5-yl)methanol] | 76.7% | 148 nM |  | > 50000 nM | 64 nM | 28.2%
12 | CCCCOC(=O)NS(=O)(=O)c1sc(-c2ccccc2C)cc1-c1ccc(Cn2c(CC)nc3c(C)cc(C)nc32)cn1 [Example 39, Butyl (3-(5-((2-ethyl-5,7-dimethyl-3H-imidazo[4,5-b]pyridin-3-yl)methyl)pyridin-2-yl)-5-(o-tolyl)thiophen-2-yl)sulfonylcarbamate] | 37.9% | 18.8 nM | 4.8% | 126 nM | 33.1 nM | 23.3%
13 | CCCCOC(=O)NS(=O)(=O)c1sc(-c2ccccc2C)cc1-c1ccc(Cn2c(CC)nc3c(C)cc(C)nc32)cc1 [Example 40, Butyl (3-(4-((2-ethyl-5,7-dimethyl-3H-imidazo[4,5-b]pyridin-3-yl)methyl)phenyl)-5-(o-tolyl)thiophen-2-yl)sulfonylcarbamate] | 84.6% | 14 nM | 8.5% | 11.9 nM | 9.3 nM | 36.4%
14 | CCCCOC(=O)NS(=O)(=O)c1sc(-c2ccccc2C(F)(F)F)cc1-c1ccc(Cn2c(CC)nc3c(C)cc(C)nc32)cc1 [Example 45, Butyl (3-(4-((2-ethyl-5,7-dimethyl-3H-imidazo[4,5-b]pyridin-3-yl)methyl)phenyl)-5-(2-(trifluoromethyl)phenyl)thiophen-2-yl)sulfonylcarbamate] | 92.2% | 34.7 nM | 14.5% | 14.4 nM | 24.6 nM | 60.3%
15 | CCCCOC(=O)NS(=O)(=O)c1sc(-c2ccccc2C(F)(F)F)cc1-c1ccc(Cn2c(CC)nc3c(C)cc(C)nc32)cn1 [Example 46, Butyl (3-(5-((2-ethyl-5,7-dimethyl-3H-imidazo[4,5-b]pyridin-3-yl)methyl)pyridin-2-yl)-5-(2-(trifluoromethyl)phenyl)thiophen-2-yl)sulfonylcarbamate] | 84.8% | 13.1 nM | 15.4% | 355 nM | 32 nM | 45.1%
16 | CCCCOC(=O)NS(=O)(=O)c1sc(-c2cccnc2OC)cc1-c1ccc(Cn2c(CC)nc3c(C)cc(C)nc32)cc1 [Example 47, Butyl (3-(4-((2-ethyl-5,7-dimethyl-3H-imidazo[4,5-b]pyridin-3-yl)methyl)phenyl)-5-(2-methoxypyridin-3-yl)thiophen-2-yl)sulfonylcarbamate] | 56.6% | 14.7 nM | 3.8% | 6.2 nM | 10.1 nM | 24.5%
17 | CCCCOC(=O)NS(=O)(=O)c1sc(-c2cccnc2OC)cc1-c1ccc(Cn2c(CC)nc3c(C)cc(C)nc32)cn1 [Example 48, Butyl (3-(5-((2-ethyl-5,7-dimethyl-3H-imidazo[4,5-b]pyridin-3-yl)methyl)pyridin-2-yl)-5-(2-methoxypyridin-3-yl)thiophen-2-yl)sulfonylcarbamate] | 43.8% | 40.6 nM | 10.0% | 357 nM | 106 nM | 20.6%
